Data set [1] in a line: pKa determination by 1H NMR pH titration. In kind it is physicochemical. On the procedure: The pKa values for analogs 1, 2, 3, 5 and 6 (see Figure 2 for chemical structures) were measured at 37°C using ^1H NMR. To determine the pKa using this method, the chemical shifts of protons alpha to the ionizable amine were plotted against pH, yielding sigmoidal curves (Figure S1) from which pKa was derived. […] Therefore, we report a previously measured pKa value for compound 4 that was procured using an alternative approach, and we report a calculated value for compound 7 (see Materials and Methods). […] Only the higher pKa value is reported in Figure 2 because the second is too low to theoretically contribute to ion trapping in lysosomes.
All NMR solvents and reagents were obtained from Cambridge Isotope Labs (Andover, MA), unless noted otherwise. Compounds were dissolved at a 2–3 mg/mL concentration in D2O. pD measurements in D2O were performed using a MiniLab model IQ125 pH electrode (Fisher Scientific, Pittsburg, PA). pD was adjusted using NaOD (40% in D2O) or DCl (20% in D2O). ^1H NMR spectra were recorded at 37°C using a Bruker 400 MHz NMR and analyzed using the Bruker Topspin software. […] (DSS) was used as the reference peak. pD was converted to pH using the following expression: pH = 0.936pD*+0.412 [45]. The change in chemical shift of protons alpha to the amine as a function of pH yielded sigmoidal plots that were fit to a 4-parameter logistic equation using SigmaPlot (Systat Software, San Jose, CA) from which pKa was determined. The calculated pKa for compound 7 was determined using the MarvinSketch version 5.3.8. pKa plugin (www.chemaxon.com).

Data set [2] concerns MDA-MB-231 cells with low (scrambled shRNA) vs elevated (V1E1 shRNA) lysosomal pH. The data set can be described thus: intracellular distribution-based (IDB) selectivity from antiproliferative WST-1 IC50 values. In kind it is cell-based, human. An excerpt: We subsequently evaluated the IC50 of the Hsp90 inhibitors in both cell types (Figure S4) and calculated selectivity as IC50 in MDA-MB-231 cells with low lysosomal pH divided by IC50 in MDA-MB-231 cells with elevated lysosomal pH.
MDA-MB-231 cells with elevated lysosomal pH were generated by lentiviral vector-mediated knockdown of the V-ATPase V1E1 subunit (ATP6V1E1). The lentiviral transfer vector pPGK-Neo-ATP6V1E1 encoding the target sequence 5′-[…]-3′ against the V-ATPase V1E1 subunit was obtained from Mission (Sigma, St. Louis, MO). […] After the cells adhered, 2.6 µg of vector DNA was combined with 26 µL of the lentiviral packaging mix and transfected into cells using Fugene-6 transfection reagent (Roche Diagnostics, Indianapolis, IN), according to the manufacturer's instructions. […] The virus-containing cell culture supernatants were harvested twice: once at 24 h and again at 48 h. Prior to use, the viral media was filtered through a 0.45-µm filter and added onto 70% confluent 75 cc flasks of MDA-MB-231 cells, in the presence of 8 µg/mL hexadimethrine bromide. The viruses were allowed to infect the cells for 16–18 h, after which the media containing viruses was replaced with fresh media for a further 24 h prior to analysis of knockdown of V1E1 expression. The knockdown efficiency was analyzed by Western blotting, performed as described previously. […] Anti-goat HRP-conjugated secondary antibody (Santa Cruz Biotechnology) was used at a 1∶5000 dilution, and anti-mouse HRP-conjugated secondary antibody was used at a 1∶1000 dilution.
Cell sensitivity to compounds was evaluated using the WST-1 (4-[3[(4-iodophenyl)-2-(4-nitrophenyl)-2H-5-tetrazolio]-1,3-benzene disulfonate) assay (BioAssay Systems, Hayward, CA), which was performed according to the manufacturer's instructions. Briefly, 4000 cells were seeded per well of a 96-well plate and allowed to adhere overnight. Cells were incubated in increasing concentrations (9 different concentrations ranging from 0.00001 µM to 1000 µM) of drug for a period of 72 h. At the end of the drug treatment period, 10 µL of WST-1 reagent was added per well, allowed to incubate at 37°C for 2 hours, and absorbance at 450 and 620 nm (reference) was measured using a Multiskan model MCC/340 microplate reader (ThermoElectron Corp, Hudson, NH). Cell viability as a percent of control (untreated) cells was plotted against drug concentration to generate cytotoxicity curves, which were fit to 3 or 4 parameter logistic Hill plots using SigmaPlot. IC50 values were determined from the curve fit.

Details of data set [3]: method as in PMID 17163760. The following applies: previously measured; cited from earlier work.
The conditions of data set [4]: cited from earlier work.
Where [5] appears, read: 1H NMR in D2O, 37°C, n = 1, for compound 5 the higher pKa, read-out: pKa.

Molecules are shown by their SMILES. “Also recorded” adds a separate entry of the source. Like-named read-outs stand apart in the source and are kept apart here.

Turning to `COC1C=CC=C(C)C(=O)NC2=CC(=O)C(NCCc3cccnc3)=C(CC(C)CC(OC)C(O)C(C)C=C(C)C1OC(N)=O)C2=O` (centres unmarked) [Compound 1], the pKa in data set [1] (setting [5]) turned out to be 5.8.
As to `O=c1[nH]cc(F)c(=O)[nH]1` [5-fluorouracil], the “IDB selectivity (IC50 low lysosomal pH / IC50 elevated lysosomal pH MDA-MB-231)” value in data set [2] is ~1; in data set [2] (72 h, WST-1, n = 3) it was “one and did not show appreciable IDB selectivity”.
Turning to `COc1cccc2c1C(=O)c1c(O)c3c(c(O)c1C2=O)C[C@@](O)(C(C)=O)C[C@@H]3O[C@H]1C[C@H](N)[C@H](O)[C@H](C)O1` [daunorubicin], the “IDB selectivity (IC50 low lysosomal pH / IC50 elevated lysosomal pH MDA-MB-231)” value in data set [2] is “significant but different degrees of IDB selectivity; also recorded: significantly higher IDB selectivity than did mitoxantrone”.
As to `CO[C@H]1/C=C\C=C(/C)C(=O)NC2=CC(=O)C(NCCN(C)C)=C(C[C@@H](C)C[C@H](OC)[C@H](O)[C@@H](C)/C=C(\C)[C@@H]1OC(N)=O)C2=O` [17-DMAG], the alpha value in data set [3] is listed as 0.01.
`O=C1c2c(O)ccc(O)c2C(=O)c2c(NCCNCCO)ccc(NCCNCCO)c21` [mitoxantrone]: the “IDB selectivity (IC50 low lysosomal pH / IC50 elevated lysosomal pH MDA-MB-231)” value is on record as “significant but different degrees of IDB selectivity” in data set [2] (72 h, WST-1, n = 3) and “significant IDB selectivity” in data set [2] (72 h, WST-1, n = 3, listed as Mitoxantrone). Moreover, the “pKa” value in data set [4] (in Figure 6) was 6; in data set [4] (weakly basic), 8.1; in data set [4] (weakly basic, listed as Mitoxantrone), ~8.
In data set [1], `COC1C=CC=C(C)C(=O)NC2=CC(=O)C(NCCN(C)C)=C(CC(C)CC(OC)C(O)C(C)C=C(C)C1OC(N)=O)C2=O` (centres unmarked) [Compound 3] returned a pKa of 7.8.
On to `COC1C=CC=C(C)C(=O)NC2=CC(=O)C(NCCN3CCNCC3)=C(CC(C)CC(OC)C(O)C(C)C=C(C)C1OC(N)=O)C2=O` (centres unmarked) [Compound 5], for which the pKa in data set [1] (setting [5]) amounted to 9.9; in data set [1] (1H NMR, 37°C, too low to contribute to ion trapping, read-out: pKa (second, lower value)) it was 4.2.
Regarding `COC1C=CC=C(C)C(=O)NC2=CC(=O)C(NCCC3CCNCC3)=C(CC(C)CC(OC)C(O)C(C)C=C(C)C1OC(N)=O)C2=O` (centres unmarked) [Compound 6], the pKa in data set [1] (setting [5]) turned out to be 10.5.

The values are drawn from publication PMC3492287, “Lysosomotropic Properties of Weakly Basic Anticancer Agents Promote Cancer Cell Selectivity In Vitro” (PLoS ONE, 2012).
